Patent US20250207103A1, “CYTOCOMPATIBLE HYDROGELS AND METHODS OF MAKING AND USING THE SAME” (The Trustees of Indiana University, priority 2022, published 2025)

Experiments:
CAFs = experiment: effect of blebbistatin and Y-27632 on spreading of CAFs in viscoelastic hydrogels; type: cell-based, human; conditions: Y-27632: 10 μM; for F-actin polymerization in CAFs: blebbistatin: 40 μM, Day 15
From the text: (§1) To facilitate imaging, pancreatic cancer cells COLO-357 were stably transduced with mKate2, a red fluorescent protein (RFP), using INCUCYTE® Cytolight Lentivirus reagent, followed by puromycin selection. green fluorescent protein (GFP)-labelled human pancreatic cancer associated fibroblasts (1303-GFP-49-hT, or CAF) and RFP-labelled COLO-357 (PCC) were maintained in high glucose Dulbecco's modified eagle medium (DMEM, Gibco) containing 10% Fetal bovine serum (FBS, Corning) and 1% antibiotic-antimycotic (Gibco) at 37° C. with 5% CO2. Cells were trypsinized by 0.1% trypsin-ethylenediaminetetraacetic acid (trypsin-EDTA) (Gibco) for cell encapsulation. The cell density of CAF and PCC was kept at 1.6 million/mL (M/mL) and 400 thousand/mL (k/mL), respectively, in both single-encapsulated and co-encapsulated precursor solutions. The hydrogel precursor solution was similar to the aforementioned formulations, except that 3 wt % of GelSH was included to facilitate cell proliferation. Twenty-five μL precursor solution was cured under UV light (λ=365 nm, 5 mW/cm^2) in an opened 1 mL syringe for 2 minutes. The cell-laden hydrogels were then cultured in regular cell culture media. For hydrogels treated with myosin inhibitor blebbistatin (40 μM, Peprotech) and ROCK inhibitor Y-27632 (10 μM, AdipoGen), the treated culture media was replaced daily to ensure the efficacy of inhibitors.
The cell viability of CAF in hydrogels was evaluated by staining with ethidium homodimer 3. The morphology of CAF in hydrogels was analyzed using F-actin (rhodamine phalloidin 100 nM, Cytoskeleton) and 4′,6-diamidino-2-phenylindole (DAPI) (1:1000, Anaspec) stained images. In the co-encapsulated hydrogels, cells were stained using F-actin (Actin stain 670 phalloidin 200 nM, Cytoskeleton) and DAPI (1:1000). The confocal images (Olympus Fluoview FV100 laser scanning microscope) were z-stacked from 5 μm slices over 100 μm in total.

PCCs/CAFs = experiment: effect of blebbistatin and Y-27632 on PCCs/CAFs encapsulated in viscoelastic hydrogels; type: cell-based, human; conditions: blebbistatin: 40 μM, Y-27632: 10 μM, Day 15
From the text: as §1, with “The cell-laden hydrogels were then cultured in regular cell culture media. For hydrogels treated with myosin inhibitor blebbistatin (40 μM, Peprotech) and ROCK inhibitor Y-27632 (10 μM, AdipoGen), the treated culture media was replaced daily to ensure the efficacy of inhibitors.” left out
The cell viability of CAF in hydrogels was evaluated by staining with ethidium homodimer 3. The morphology of CAF in hydrogels was analyzed using F-actin (rhodamine phalloidin 100 nM, Cytoskeleton) and 4′,6-diamidino-2-phenylindole (DAPI) (1:1000, Anaspec) stained images. […]

Row | Compound | cell morphology of CAFs (CAFs) | F-actin polymerization in CAFs (CAFs) | invasive phenotype of PCC cells in co-culture (PCCs/CAFs)
1 | C[C@@H](N)[C@H]1CC[C@H](C(=O)Nc2ccncc2)CC1 [Y-27632] | more obvious dendritic extensions of cells | disrupted F-actin polymerization | neither the addition of blebbistatin nor Y-27632 altered invasive phenotype
2 | Cc1ccc2c(c1)C(=O)C1(O)CCN(c3ccccc3)C1=N2 (centres unmarked) [blebbistatin] |  | disrupted F-actin polymerization | neither the addition of blebbistatin nor Y-27632 altered invasive phenotype
